The target in data set [1] is plasminogen activator inhibitor-1 (PAI-1) (Homo sapiens, UniProt P05121). The conditions noted are these: US 2010 0137194; cited from earlier work.
A further data set has as its system Human skin. In words: Depigmentation effect on ex vivo skin (melanin granules, Fontana-Masson, image analysis). Type of data set: cell-based. The following applies: 0.1 wt.% in O/W emulsion, topical, 6 days. Here is the method: Human skin, originating from plastic surgery, was cut into 4×4×3 mm pieces (length×width×height) and placed in culture at the air-liquid interface on a sterilized cotton pad soaked with 5 ml of customized DMEM (Dulbecco's Modified Eagle Medium). Assays were started 24 h after sample acclimatization at 37° C., 5% CO2. O/W emulsions (as described in more detail below) without (=control) and with the test compounds, respectively, were applied topically and incubated for 6 days. Histological sections were prepared and melanin granules stained by Fontana-Masson technique. The granules were quantified by image analysis. The results are compiled in Tables 3.1 and 3.2.
Phases A and B are heated to 70° C. separately. Pemulen TR1 as well as Ultrez-21 are dispersed in phase B when heated to 70° C. Phase B/C is added to phase A by mixing with an Ultra Turrax, followed by emulsifying. Phase D is slowly added to phase A/B/C using a paddle mixer and a pH 5.5-6 is adjusted. The formulation is cooled down while mixing with a paddle mixer. Phase E is added to the mixture of phase A-D.

In data set [2] the target is T1, transient receptor potential cation channel-6 (TRPC6) (Homo sapiens, UniProt Q9Y210).
T1 sequence (Q9Y210 1-931): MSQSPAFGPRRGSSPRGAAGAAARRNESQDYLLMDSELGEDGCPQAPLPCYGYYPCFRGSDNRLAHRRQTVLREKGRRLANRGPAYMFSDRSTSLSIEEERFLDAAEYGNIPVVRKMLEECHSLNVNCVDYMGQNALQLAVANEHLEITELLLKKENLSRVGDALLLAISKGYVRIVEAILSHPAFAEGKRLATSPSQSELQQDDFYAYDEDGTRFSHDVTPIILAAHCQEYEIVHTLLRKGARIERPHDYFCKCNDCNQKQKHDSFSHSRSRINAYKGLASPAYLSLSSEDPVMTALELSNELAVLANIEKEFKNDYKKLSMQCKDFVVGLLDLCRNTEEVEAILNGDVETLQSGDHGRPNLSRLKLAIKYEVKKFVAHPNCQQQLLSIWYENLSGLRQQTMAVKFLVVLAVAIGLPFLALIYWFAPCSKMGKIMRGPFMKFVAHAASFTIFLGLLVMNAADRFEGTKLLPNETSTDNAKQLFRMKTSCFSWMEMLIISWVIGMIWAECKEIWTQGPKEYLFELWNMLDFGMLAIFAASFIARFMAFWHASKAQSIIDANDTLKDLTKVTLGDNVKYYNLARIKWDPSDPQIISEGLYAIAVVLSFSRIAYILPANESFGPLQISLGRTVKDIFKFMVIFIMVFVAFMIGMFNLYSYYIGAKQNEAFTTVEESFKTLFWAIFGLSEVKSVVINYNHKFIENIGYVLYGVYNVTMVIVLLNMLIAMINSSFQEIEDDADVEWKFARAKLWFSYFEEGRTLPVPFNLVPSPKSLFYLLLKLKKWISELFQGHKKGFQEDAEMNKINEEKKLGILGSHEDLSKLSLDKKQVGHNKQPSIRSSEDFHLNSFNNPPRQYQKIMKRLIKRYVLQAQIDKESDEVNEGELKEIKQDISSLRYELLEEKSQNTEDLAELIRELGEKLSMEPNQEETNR
The conditions noted are these: WO 2013 021038 A1; cited from earlier work.

Data set [3] is described as follows: Incorporation into commonly used cosmetic formulations / crystallisation. The following applies: for incorporation into commonly used cosmetic formulations: own experiments. The class given is physicochemical. The source says:
The analogues compound manool was already described as skin lightening active (JP 2006 137705 (Pola) and JP 06072855 (Pola)).

The test system of data set [4] is B16V mouse melanoma cells. In words: Depigmentation effect on melanoma cell cultures (inhibition of pigmentation). Type of data set: cell-based. The following applies: for IC50: Mus musculus, B16V cells, 0.3 mM tyrosine + 10 nM α-MSH, 96 h, absorption at 400 nm. On the procedure: (§1) B16V mouse melanoma cells are disseminated in a 96-well micro-titre plate in a concentration of 7.5×10^3 cells/well. After cultivation for 24 h at 37° C. and 5% CO2 in RPMI medium, enriched with 10% foetal calf serum, various concentrations of the test substances and 0.3 mM tyrosine and 10 nM α-MSH (α-melanocyte stimulating hormone) are added and incubated for a further 96 h. The maximum concentration of the test substances used corresponds to 0.1 times the value of the IC20 value of the cytotoxicity assay. Only tyrosine and α-MSH are added to the controls. After incubation, sodium hydroxide solution (final concentrations: 1 M) is added to the culture medium and the absorption (A) is measured after 3 h at 400 nm.
(§2) The inhibition of pigmentation in the presence of the test compounds was calculated using the following equation: Inhibition of pigmentation (%)=100−[(Atest compound/Acontrol)×100] wherein Atest compound=absorption of the wells with test substance and with cells Acontrol=absorption of the wells without test substance, but with cells
From the inhibition of pigmentation (%) in a series of dilutions of test compounds, the IC50 for each test compound is calculated. This is the concentration of a test compound at which pigmentation is inhibited by 50%.

The subject of data set [5] is B16V mouse melanoma cells. Kind of data set: Synergistic in vitro melanin inhibition (procedure of Example 1, Kull synergy index). The class given is cell-based. The following applies: experiments 1 and 2, mixture 75% Larixol / 25% SymWhite 377. Here is the method:
as §1, §2
From the inhibition of pigmentation (%) in a series of dilutions of test compounds, the IC50 for each test compound is calculated. […]
The Synergy Index (SI)^1 is calculated according to Kull's equation as follows: ^1 The calculation of the synergy index (SI-value) was carried out on the basis of following literature: D. C. […]

Several values for one entry are separate records, joined by “and”; a condition that tells them apart may be missing. Equal entries are not always repeated.

Chain of plasminogen activator inhibitor-1 (PAI-1) (P05121 24-402, species assumed): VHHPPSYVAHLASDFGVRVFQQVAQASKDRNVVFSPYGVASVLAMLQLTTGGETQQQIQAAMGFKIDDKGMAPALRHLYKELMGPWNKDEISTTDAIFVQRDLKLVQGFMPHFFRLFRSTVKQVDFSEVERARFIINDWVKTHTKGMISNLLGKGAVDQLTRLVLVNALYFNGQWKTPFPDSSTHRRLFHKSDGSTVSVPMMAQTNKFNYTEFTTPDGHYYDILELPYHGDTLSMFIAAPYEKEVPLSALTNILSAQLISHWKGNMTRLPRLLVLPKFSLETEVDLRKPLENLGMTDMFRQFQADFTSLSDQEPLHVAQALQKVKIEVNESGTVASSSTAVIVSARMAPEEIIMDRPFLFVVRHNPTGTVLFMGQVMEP

For `C=C[C@@](C)(O)CC[C@H]1C(=C)C[C@H](O)[C@H]2C(C)(C)CCC[C@]12C` [Larixol, (1S,4S,4aR,8aS)-4-[(3S)-3-Hydroxy-3-methylpent-4-enyl]-4a,8,8-trimethyl-3-methylenedecahydronaphthalen-1-ol], the “PAI-1 inhibition (screening)” value in data set [1] was “PAI-1 inhibitor”. In addition, the “Melanin score vs. Control” value with Human skin is listed as −41%. Besides, the TRPC6 antagonism result in data set [2] is given as “TRPC6 antagonists”. The “incorporation into commonly used cosmetic formulations” value in data set [3] was “can easily be incorporated”. For the same compound, the IC50 in data set [4] worked out at 3.9 µM. Besides, the “inhibitory activity towards melanin formation in melanocytes” value in data set [4] (statement in words) is given as “strong inhibitory activity”. For the same compound, the “Melanin inhibition IC50” value in data set [5] amounted to 0.00011%.

On to `CC(c1ccccc1)c1ccc(O)cc1O` (stereo not shown) [SymWhite ® 377, 4-(1-phenylethyl)1,3-dihydroxybenzene], for which, in data set [5], the “Melanin inhibition IC50” value was 0.000021% and 0.000034%.

With `OC[C@H]1O[C@@H](Oc2ccc(O)cc2)[C@H](O)[C@@H](O)[C@@H]1O` [beta-Arbutin, reference compound], in data set [4], the IC50 was 67 µM.

Consider `C=CC(C)(O)CCC1C(=C)CC(OC(C)=O)C2C(C)(C)CCCC12C` (stereo not shown) [larixyl acetate], for which the TRPC6 antagonism result in data set [2] is reported as “TRPC6 antagonists”.

Regarding `C=CC(C)(CCC1C(=C)CC(OC(C)=O)C2C(C)(C)CCCC12C)OC(C)=O` (stereo not shown) [larixyl diacetate], the TRPC6 antagonism result in data set [2] is “TRPC6 antagonists”.

As for `C=C[C@](C)(O)CC[C@H]1C(=C)CC[C@H]2C(C)(C)CCC[C@]12C` [manool], the crystallisation in formulation result in data set [3] (formulation with manool, after a few days) was “crystallisation of manool after a few days”. In data set [3], the “incorporation into commonly used cosmetic formulations” value was “difficult to incorporate”.

The IC50 is the concentration that inhibits the measured activity by half.

The values are drawn from patent publication US9974721B2, “Cosmetic composition for lightening skin and hair” (Symrise AG, priority 2013, dated 2018).
